According to US12295997B2, “Prostate neoantigens and their uses” (Janssen Biotech, Inc., priority 2020, dated 2025):

System: CD8+ and CD4+ T cells (autologous CD3+ Pan-T cells isolated from human normal PBMCs)
Test: Exogenous autologous normal donor restimulation assay (15-mer overlapping peptide pools on CD1c+ dendritic cells, TNFα/IFNγ flow cytometry)
Type: cell-based
Details: 15-mer overlapping peptide pool; for Max. Fold Change over background CD4+ TNFαINFγ double positive DP / Max. Fold Change over background CD8+ TNFαINFγ double positive DP / Max. Frequency of CD4+ TNFαINFγ DP / Max. Frequency of CD8+ TNFαINFγ DP: Table 28, additional neoantigens, highest across normal donors; for Maximum Fold Change Over Background CD4+ cells / Maximum Fold Change Over Background CD8+ cells / Maximum Frequency of TNFα/IFNγ Double Positive CD4+ T cells / Maximum Frequency of TNFα/IFNγ Double Positive CD8+ T cells: Table 25; for Maximum Fold Change Over Background CD4+ cells: TNFα+IFNγ+ CD4+ T cells; for Maximum Fold Change Over Background CD4+ cells / Maximum Fold Change Over Background CD8+ cells: highest fold change over negative control across normal donors; for Maximum Fold Change Over Background CD8+ cells: TNFα+IFNγ+ CD8+ T cells; for Maximum Frequency of TNFα/IFNγ Double Positive CD4+ T cells / Maximum Frequency of TNFα/IFNγ Double Positive CD8+ T cells: highest frequency across normal donors
Procedure: CD1c+ Dendritic Cells (DC) isolated from human normal PBMCs were thawed using media (IMDM (Gibco) supplemented with glutamine, HEPES, 5% human serum (Sigma), and 1× Pen-Strep). DC cells were resuspended in media supplemented with IL-4 (Peprotech, 80 ng/mL) and GM-CSF (Gibco, 80 ng/mL), plated in 6 well microplates, and rested overnight at 37° C. (5% CO2). The following day, DC cells were counted and plated in a 96 well round bottom microplate at a concentration of 30,000 viable cells per well. Lyophilized peptides (15-mer overlapping peptides) were solubilized in 100% DMSO and pooled by neoantigen to between 5 mg/mL and 20 mg/mL. Neoantigen peptides pools were added to DCs for a final concentration of […] and rested for 2 hours at 37° C. (5% CO2). CEF Peptide Pool “Plus” (Cellular Technologies, Ltd.) was utilized as a positive control and DMSO at the same final concentration as the experimental peptides was utilized as a negative control. After 2 hours, DC cells were irradiated with 50 gray of ionizing radiation. Autologous CD3+ Pan-T cells isolated from human normal PBMCs were thawed using media. Following irradiation, autologous Pan-T cells were added to the irradiated DCs at 300,000 viable cells per well. Human IL-15 (Peprotech) was added to all wells at final concentration of 10 ng/mL.
Plates were incubated at 37° C. (5% CO2) for a total of 12 days. Media was refreshed every 2-3 days with IL-15 (10 ng/mL final concentration) and IL-2 (R&D systems, 10 IU/mL final concentration). On day 11 cells were re-stimulated with identical experimental peptide pools or controls, at same concentration as peptide stimulation on Day 1. Protein Inhibitor Cocktail (eBioscience) was added to every well and plate was incubated overnight at 37° C. (5% CO2).
On day 12, cells were stained for intracellular flow cytometry analysis. The cells were washed with PBS and stained with Live/Dead Fixable Aqua Dead Cell stain (Thermo-Fisher). Following the live/dead stain, cells were blocked using Biotin-Free Fc Receptor Blocker (Accurate Chemical & Scientific Corp). Extracellular cellular flow panel (1 μL/antibody per well in 50 μL) consisted of CD3 PerCP-Cy5.5 (Biolegend), CD4 BV421 (Biolegend), and CD8 APC-Cy7 (Biolegend). After extracellular staining, cells were fixed using Foxp3/fTranscription Factor Staining Buffer Set (eBioscience) and stained for intracellular proteins (1:50 dilution) using TNFα FITC (R&D Systems) and IFNγ BV785 (Biolegend). Cells were washed and resuspended in stain buffer and analyzed using a BD Celesta flow cytometer.
Flow cytometry cell staining analysis was completed using FlowJo v10. Cells were gated on live, singlet, CD3+ cells. The CD8+ and CD4+ T cells were analyzed for TNFα/IFNγ expression and the frequency of double positive TNFα/IFNγ CD8+ and the frequency of double positive TNFα/IFNγ CD4+ T cells were recorded. Responses were assessed to be positive when the frequency of double positive TNFα/IFNγ CD8+ or TNFα/IFNγ CD4+ T cells due to stimulation with an experimental peptide pool was increased greater than or equal to 3-fold over the DMSO only negative control for that donor and at least 0.01%.
(§1) Overlapping 15-mer peptides were designed to span each neoantigen incorporated into NeoGAd20 and NeoMVA to assess their ability to activate T cells using the exogenous autologous normal donor restimulation assay described in Example 1 as pools using TNFα and IFNγ production by CD8^+ and CD4^+ T cells as a readout.
as §1, with “Immunogenicity of various additional identified neoantigens was assessed. Overlapping” for “Overlapping”, “similarly to what was done in Example 11” for “incorporated into NeoGAd20 and NeoMVA”

Row | Substance | Max. Fold Change over background CD4+ TNFαINFγ double positive DP | Max. Fold Change over background CD8+ TNFαINFγ double positive DP | Max. Frequency of CD4+ TNFαINFγ DP | Max. Frequency of CD8+ TNFαINFγ DP | Maximum Fold Change Over Background CD4+ cells | Maximum Fold Change Over Background CD8+ cells | Maximum Frequency of TNFα/IFNγ Double Positive CD4+ T cells | Maximum Frequency of TNFα/IFNγ Double Positive CD8+ T cells
1 | FARKMLEKVHRQHLQLSHNSQE (listed as Homo sapiens) [AS12, EVPL alternative splicing] | 7.32 | 6.03 | 0.28 | 0.19 | – | – | – | –
2 | IIDSDKIMAVCMGCLLTRHVQCQAMEMQQ (listed as Homo sapiens) [AS54, ABCC4 alternative splicing] | 17.87 | 88.15 | 0.18 | 8.33 | – | – | – | –
3 | FMIGELVGELCCQLTFRLPFLESLCQAVVTQALRFNPSFQEVCIYQDTDLM (listed as Homo sapiens) [AS2, SLC30A4 alternative splicing] | 110.68 | 5.06 | 0.86 | 0.09 | – | – | – | –
4 | WCPLDLRLGSTGCLTCRHHQTSHE (listed as Homo sapiens) [AS4, NCAPD3 alternative splicing] | 37.38 | 5.4 | 1.43 | 0.17 | – | – | – | –
5 | DLRRVATYCAPLPSSWRPGTGTTIPPRMRSC (listed as Homo sapiens) [FUS23, NUDT14->JAG2 gene fusion] | 12.77 | 11.05 | 0.12 | 0.62 | – | – | – | –
6 | MFLRKEQQVGPHSFSML (listed as Homo sapiens) [AS14, IQCG alternative splicing] | 1.49 | 3.81 | 0.06 | 0.12 | – | – | – | –
7 | TGGKSTCSAPGPQSLPSTPFSTYPQWVILITEL (listed as Homo sapiens) [AS57, KLK3 alternative splicing] | – | – | – | – | 11.00 | 4.67 | 0.110 | 0.056
8 | RLTQRLVQGWTPMENRWCGRRAGGQPASSSTRWTTCRAACLLTKWTAGRSQTSIG (listed as Homo sapiens) [AS49, PDF alternative splicing] | 184.87 | 8.67 | 0.14 | 0.65 | – | – | – | –
9 | DGHSYTSKVNCLLLQDGFHGCVSITGAAGRRNLSIFLFLMLCKLEFHA (listed as Homo sapiens) [AS55.1, SPOCK1 alternative splicing] | 20.66 | 25.26 | 0.08 | 1.47 | – | – | – | –
10 | KRSFAVTERII (listed as Homo sapiens) [AS13, GRIN3A alternative splicing] | – | – | – | – | 1.96 | 1.67 | 0.05 | 0.10
11 | GNTTLQQLGEASQAPSGSLIPLRLPLLWEVRG (listed as Homo sapiens) [AS16, LRRC45 alternative splicing] | – | – | – | – | 7.78 | 24.17 | 0.140 | 0.290
12 | KWNKNWTATLGALTIRGHKLLCHLPHLLSSVQQTCRSSSR (listed as Homo sapiens) [AS46, SERINC5 alternative splicing] | 157.98 | 11.6 | 0.29 | 0.87 | – | – | – | –
13 | TEISCCTLSSEENEYLPRPEWQLQ (listed as Homo sapiens) [FUS3, MSMB->NCOA4 gene fusion] | – | – | – | – | 2.75 | 3.94 | 0.033 | 0.063
14 | MS7 (KKDLELIL; listed as Homo sapiens) | 10.52 | 6.67 | 0.09 | 0.12 | – | – | – | –
15 | TEYNQKLQVNQFSESK (listed as Homo sapiens) [FUS2, ARHGEF38->ARHGEF38-IT1 gene fusion] | – | – | – | – | 2.14 | 3.13 | 0.03 | 0.05
16 | TMPAILKLQKNCLLSL (listed as Homo sapiens) [MS8] | – | – | – | – | 15.60 | 4.44 | 0.40 | 0.14
17 | GMECTLGQVGAPSPRREEDGWRGGHSRFKADVPAPQGPCWGGQPGSAPSSAPPEQSLLD (listed as Homo sapiens) [AS51, CPNE7 alternative splicing] | – | – | – | – | 8.75 | 33.13 | 0.140 | 0.530
18 | NSKMALNSEALSVVSE (listed as Homo sapiens) [FUS5, TMPRSS2->ERG gene fusion] | – | – | – | – | 3.43 | 32.50 | 0.048 | 0.390
19 | LQERMELLACGAERGAGGWGGGGGGGGGDRRGGGGSAPALADFAGGRG (listed as Homo sapiens) [FUS24, DMPK->SIX5 gene fusion] | 4.4 | 8.53 | 0.05 | 0.64 | – | – | – | –
20 | VVGRRHETAPQPLLVPDRAGGEGGA (listed as Homo sapiens) [AS5, DHDH alternative splicing] | 8.71 | 2.13 | 0.1 | 0.16 | – | – | – | –
21 | ENSGNASRWLHVPSSSDDWLGWKKSSAITSNS (listed as Homo sapiens) [AS50, LRIF1 alternative splicing] | 17.22 | 1.6 | 0.07 | 0.12 | – | – | – | –
22 | DCMLSEEGGQARRGGSLCSLAAHTIASAARGRFLSRLSNFCAVVKASRGAPSCTWE (listed as Homo sapiens) [AS40, LRRC45 alternative splicing] | 15.34 | 178.52 | 0.89 | 2.41 | – | – | – | –
23 | P97 (GYLRMQGLMAQRLLLR; listed as Homo sapiens) [Neoantigen P97] | 3.14 | 7.47 | 0.12 | 1.11 | – | – | – | –
